Literature values, collected in patent publication US20070254026A1, “SOFTGEL CAPSULES” (FORBES MEDI-TECH INC., priority 2006, published 2007).

Test system: benign prostate hypertrophy
Details: Berges.2000; Coleman.2002

In the case of `CC[C@H](CC[C@@H](C)[C@H]1CC[C@H]2[C@@H]3CC=C4C[C@@H](O)CC[C@]4(C)[C@H]3CC[C@]12C)C(C)C` [sitosterol, β-sitosterol], the “effective dose reducing symptoms of benign prostate hypertrophy” value is given as 20 to 60 mg per day.
